The EC50 is the concentration needed to bring the measured effect to its halfway point.

The values that follow come from patent US20240018161A1, “MODULATORS OF CYSTIC FIBROSIS TRANSMEMBRANE CONDUCTANCE REGULATOR” (VERTEX PHARMACEUTICALS INCORPORATED, priority 2020, published 2024).

This experiment concerns the target CFTR-mediated chloride transport in human intestinal epithelial enteroid cells (Homo sapiens, UniProt P13569). Briefly: Membrane potential dye, Enteroid Assay A. The experiment is classed as cell-based. Particulars: for EC50: read-out: Ent. A EC50. Here is the method: Base medium (ADF+++) consisted of Advanced DMEM/Ham's F12, 2 mM Glutamax, 10 mM HEPES, […] penicillin/streptomycin.
Bath 1 Buffer consisted of 1 mM MgCl2, 160 mM NaCl, 4.5 mM KCl, 10 mM HEPES, 10 mM Glucose, 2 mM CaCl2.
Chloride Free Buffer consisted of 1 mM Magnesium Gluconate, 2 mM Calcium Gluconate, 4.5 mM Potassium Gluconate, 160 mM Sodium Gluconate, 10 mM HEPES, 10 mM Glucose.
Bath1 Dye Solution consisted of Bath 1 Buffer, 0.04% Pluronic F127, 20 μM Methyl Oxonol, 30 μM CaCCinh-A01, 30 μM Chicago Sky Blue.
Chloride Free Dye Solution consisted of Chloride Free Buffer, 0.04% Pluronic F127, 20 μM Methyl Oxonol, 30 μM CaCCinh-A01, 30 μM Chicago Sky Blue.
3. Enteroid Cell Harvesting and Seeding
Cells were recovered in cell recovery solution, collected by centrifugation at 650 rpm for 5 min at 4° C., resuspended in TryPLE and incubated for 5 min at 37° C. Cells were then collected by centrifugation at 650 rpm for 5 min at 4° C. and resuspended in IEMM containing 10 μM ROCK inhibitor (RI).
4. Membrane Potential Dye, Enteroid Assay A
Briefly, cells were washed 5 times in Bath 1 Buffer. Bath 1 Dye Solution was added, and the cells were incubated for 25 min at room temperature. Following dye incubation, cells were washed 3 times in Chloride Free Dye Solution. Chloride transport was initiated by addition of Chloride Free Dye Stimulation Solution and the fluorescence signal was read for 15 min. […] Chloride transport was then expressed as a percentage of the chloride transport following treatment with 3 μM N-[(6-amino-2-pyridyl)sulfonyl]-6-(3-fluoro-5-isobutoxy-phenyl)-2-[(4S)-2,2,4-trimethylpyrrolidin-1-yl]pyridine-3-carboxamide, 3 μM (R)-1-(2,2-difluorobenzo[d][1,3]dioxol-5-yl)-N-(1-(2,3-dihydroxypropyl)-6-fluoro-2-(1-hydroxy-2-methylpropan-2-yl)-1H-indol-5-yl)cyclopropanecarboxamide and 300 nM acute N-[2,4-bis(1,1-dimethylethyl)-5-hydroxyphenyl]-1,4-dihydro-4-oxoquinoline-3-carboxamide triple combination control (% Activity).

Where [1] appears, read: percentage of chloride transport of triple combination control (3 μM N-[(6-amino-2-pyridyl)sulfonyl]-6-(3-fluoro-5-isobutoxy-phenyl)-2-[(4S)-2,2,4-trimethylpyrrolidin-1-yl]pyridine-3-carboxamide based).
The mark [2] stands for this setting: enteroid cells incubated with test compound 18-24 hours, acute 10 μM forskolin and 300 nM N-[2,4-bis(1,1-dimethylethyl)-5-hydroxyphenyl]-1,4-dihydro-4-oxoquinoline-3-carboxamide.

Read-outs that look alike come from different tables or passages of the source.

CFTR-mediated chloride transport in human intestinal epithelial enteroid cells, sequence (P13569 with tags, fused parts or gaps DEL508-508): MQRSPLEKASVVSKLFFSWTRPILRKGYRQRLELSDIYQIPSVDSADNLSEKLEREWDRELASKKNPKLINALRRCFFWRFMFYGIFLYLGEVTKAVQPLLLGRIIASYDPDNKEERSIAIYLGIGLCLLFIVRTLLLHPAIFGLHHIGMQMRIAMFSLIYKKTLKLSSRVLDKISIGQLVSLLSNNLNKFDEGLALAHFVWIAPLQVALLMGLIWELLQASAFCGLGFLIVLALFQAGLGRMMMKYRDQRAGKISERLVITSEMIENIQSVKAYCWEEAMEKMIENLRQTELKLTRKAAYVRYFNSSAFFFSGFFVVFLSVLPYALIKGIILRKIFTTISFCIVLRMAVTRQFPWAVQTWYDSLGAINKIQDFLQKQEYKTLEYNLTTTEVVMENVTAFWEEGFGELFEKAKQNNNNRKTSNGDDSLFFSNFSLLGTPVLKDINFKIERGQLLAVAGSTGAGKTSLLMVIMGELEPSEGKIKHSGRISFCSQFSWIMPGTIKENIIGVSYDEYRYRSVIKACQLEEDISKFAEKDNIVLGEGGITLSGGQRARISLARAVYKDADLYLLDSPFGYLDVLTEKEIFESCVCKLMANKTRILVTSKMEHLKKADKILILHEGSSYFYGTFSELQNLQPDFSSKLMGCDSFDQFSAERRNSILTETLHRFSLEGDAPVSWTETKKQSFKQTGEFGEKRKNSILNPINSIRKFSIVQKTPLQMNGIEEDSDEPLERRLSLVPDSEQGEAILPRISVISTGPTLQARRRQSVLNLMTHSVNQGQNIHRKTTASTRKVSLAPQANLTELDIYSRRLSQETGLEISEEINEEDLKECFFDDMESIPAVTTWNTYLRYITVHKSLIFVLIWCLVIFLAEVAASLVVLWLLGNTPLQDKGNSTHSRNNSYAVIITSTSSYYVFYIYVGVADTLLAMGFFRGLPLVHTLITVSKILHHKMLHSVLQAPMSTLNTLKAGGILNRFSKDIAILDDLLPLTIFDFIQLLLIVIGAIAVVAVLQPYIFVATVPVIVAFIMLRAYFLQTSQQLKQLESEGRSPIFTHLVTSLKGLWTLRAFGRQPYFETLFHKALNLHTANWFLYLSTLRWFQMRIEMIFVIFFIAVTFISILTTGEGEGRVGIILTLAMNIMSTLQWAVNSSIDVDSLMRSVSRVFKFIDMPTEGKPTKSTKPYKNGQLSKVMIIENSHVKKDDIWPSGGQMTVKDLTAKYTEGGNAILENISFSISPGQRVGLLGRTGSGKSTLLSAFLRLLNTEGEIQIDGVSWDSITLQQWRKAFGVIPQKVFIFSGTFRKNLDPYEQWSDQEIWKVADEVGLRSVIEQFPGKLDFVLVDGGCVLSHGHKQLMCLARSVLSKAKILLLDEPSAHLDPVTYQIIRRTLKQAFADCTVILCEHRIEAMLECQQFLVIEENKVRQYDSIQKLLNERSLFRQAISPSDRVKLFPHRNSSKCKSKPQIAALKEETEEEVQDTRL

Take `Cc1cccc(C)c1-c1cc2nc(n1)NS(=O)(=O)c1cccc(c1)CN1C[C@@H](CN(Cc3ccccc3)CC1=O)O2` (stereo in doubt) [Compound 144]: for the setting “Enteroid Assay A”, the “Ent. A Max Activity (%)” value is “++ (++ is 30-60%)” and the EC50 was < 1000 nM.
Turning to `Cc1cccc(C)c1-c1cc2nc(n1)NS(=O)(=O)c1cccc(c1)C(=O)N1CCN(C[C@@H]3CC(C)(C)NC3=O)C[C@@H]1CO2` (stereo in doubt) [Compound 293], the “Ent. A Max Activity (%)” value under setting [1] is reported as “+ (+ is <300%)”.
For the compound `Cc1cccc(C)c1-c1cc2nc(n1)NS(=O)(=O)c1cccc(c1)C(=O)N1Cc3ccccc3[C@@H](O2)[C@H]1CC(C)C` (stereo in doubt) [Compound 332], the EC50 under setting [2] was < 1000 nM. Also, the “Ent. A Max Activity (%)” value under setting [1] is given as “+++ (+++ is >60%)”.
Regarding `Cc1cccc(C)c1-c1cc2nc(n1)NS(=O)(=O)c1cccc(c1)C(=O)N1CCNC[C@H](C1)O2` [Compound 2, (16R)-12-(2,6-Dimethylphenyl)-15-oxa-8λ^6-thia-1,9,11,18,22-pentaazatetracyclo[14.4.1.13,7.110,14]tricosa-3,5,7(23),10,12,14(22)-hexaene-2,8,8-trione], the EC50 under setting [2] was 3000 to 30000 nM. The “Ent. A Max Activity (%)” value under setting [1] is given as “+++ (+++ is >60%)”.
For the compound `Cc1cccc(C)c1-c1cc2nc(n1)NS(=O)(=O)c1cccc(c1)C(=O)N1CCN(C3CC4(CCCCC4)C3)C[C@H](C1)O2` [Compound 3, (16R)-12-(2,6-Dimethylphenyl)-18-{spiro[3.5]nonan-2-yl}-15-oxa-8λ^6-thia-1,9,11,18,22-pentaazatetracyclo[14.4.1.13,7.110,14]tricosa-3(23),4,6,10(22),11,13-hexaene-2,8,8-trione], for the setting “Enteroid Assay A”, the “Ent. A Max Activity (%)” value is “+++ (+++ is >600%)” and the EC50 is < 1000 nM.
For `Cc1cccc(C)c1-c1cc2nc(n1)NS(=O)(=O)c1cccc(c1)C(=O)N1CCN(C3CCC(F)(F)CC3)C[C@H](C1)O2` [Compound 4, (16R)-18-(4,4-Difluorocyclohexyl)-12-(2,6-dimethylphenyl)-15-oxa-8λ^6-thia-1,9,11,18,22-pentaazatetracyclo[14.4.1.13,7.110,14]tricosa-3(23),4,6,10(22),11,13-hexaene-2,8,8-trione] the same measures were “+++ (+++ is >600%)” and < 1000 nM.
Regarding `Cc1cccc(C)c1-c1cc2nc(n1)NS(=O)(=O)c1cccc(c1)C(=O)N1CCN(C3CCC(C)(C)CC3)C[C@H](C1)O2` [Compound 5, (16R)-18-(4,4-Dimethylcyclohexyl)-12-(2,6-dimethylphenyl)-15-oxa-8λ^6-thia-1,9,11,18,22-pentaazatetracyclo[14.4.1.13,7.110,14]tricosa-3(23),4,6,10,12,14(22)-hexaene-2,8,8-trione], the “Ent. A Max Activity (%)” value was “+++ (key: +++ is >600%; ++ is 30-60%; + is <30%)” and the EC50 is < 1000 nM.
For `Cc1cccc(C)c1-c1cc2nc(n1)NS(=O)(=O)c1cccc(c1)C(=O)N1CCN(C3CCCC3)C[C@H](C1)O2` [Compound 6, (16R)-18-cyclopentyl-12-(2,6-dimethylphenyl)-8,8-dioxo-15-oxa-8λ^6-thia-1,9,11,18,22-pentazatetracyclo[14.4.1.13,7.110,14]tricosa-3,5,7(23),10(22),11,13-hexaen-2-one], for the setting “Enteroid Assay A”, the “Ent. A Max Activity (%)” value is given as “+++ (+++ is >600%)” and the EC50 was < 1000 nM.
For `Cc1cccc(C)c1-c1cc2nc(n1)NS(=O)(=O)c1cccc(c1)C(=O)N1CCN(C3CC4(CCCC4)C3)C[C@H](C1)O2` [Compound 8, (16R)-12-(2,6-Dimethylphenyl)-18-{spiro[3.4]octan-2-yl}-15-oxa-8λ^6-thia-1,9,11,18,22-pentaazatetracyclo[14.4.1.13,7.110,14]tricosa-3(23),4,6,10(22),11,13-hexaene-2,8,8-trione] the same measures were “+++ (+++ is >600%)” and < 1000 nM.
For the compound `CCC(CC)N1CCN2C[C@@H](C1)Oc1cc(-c3c(C)cccc3C)nc(n1)NS(=O)(=O)c1cccc(c1)C2=O` [Compound 11, (16R)-12-(2,6-Dimethylphenyl)-18-(1-ethylpropyl)-8,8-dioxo-15-oxa-8λ^6-thia-1,9,11,18,22-pentazatetracyclo[14.4.1.13,7.110,14]tricosa-3,5,7(23),10,12,14(22)-hexaen-2-one], where the note is “Enteroid Assay A”, the “Ent. A Max Activity (%)” value was “+++ (+++ is >600%)” and the concentration giving a half-maximal response (EC50) is < 1000 nM.
Turning to `Cc1cccc(C)c1-c1cc2nc(n1)NS(=O)(=O)c1cccc(c1)C(=O)N1CCN(C3CCC4(CCCCC4)CC3)C[C@H](C1)O2` [Compound 12], under “Enteroid Assay A”, the “Ent. A Max Activity (%)” value is reported as “+++ (+++ is >600%)” and the EC50 was < 1000 nM.
`Cc1cccc(C)c1-c1cc2nc(n1)NS(=O)(=O)c1cccc(c1)C(=O)N1CCN(C3CCC4(CC3)CC4)C[C@H](C1)O2` [Compound 13]: for the setting “Enteroid Assay A”, the “Ent. A Max Activity (%)” value is recorded as “+++ (+++ is >600%)” and the EC50 is < 1000 nM.
In the case of `Cc1cccc(C)c1-c1cc2nc(n1)NS(=O)(=O)c1cccc(c1)C(=O)N1CCN(CC3(C)CCOCC3)C[C@H](C1)O2` [Compound 14], for the setting “Enteroid Assay A”, the “Ent. A Max Activity (%)” value is on record as “+++ (+++ is >600%)” and the concentration for a half-maximal effect (EC50) is < 1000 nM.
Turning to `Cc1cccc(C)c1-c1cc2nc(n1)NS(=O)(=O)c1cccc(c1)C(=O)N1CCN(C3CCC4CC43)C[C@H](C1)O2` (some centres unmarked) [Compound 15], under “Enteroid Assay A”, the “Ent. A Max Activity (%)” value was “+++ (+++ is >600%)” and the EC50 is < 1000 nM.
For `Cc1cccc(C)c1-c1cc2nc(n1)NS(=O)(=O)c1cccc(c1)C(=O)N1CCN(Cc3ccc(C(C)(C)C)cc3)C[C@H](C1)O2` [Compound 16] the same measures were “+++ (+++ is >600%)” and < 1000 nM.
For the compound `Cc1cccc(C)c1-c1cc2nc(n1)NS(=O)(=O)c1cccc(c1)C(=O)N1CCN(CC3C4(CC4)C34CC4)C[C@H](C1)O2` [Compound 17], where the note is “Enteroid Assay A”, the “Ent. A Max Activity (%)” value is “+++ (+++ is >600%)” and the EC50 was < 1000 nM.
As to `Cc1cccc(C)c1-c1cc2nc(n1)NS(=O)(=O)c1cccc(c1)C(=O)N1CCN(CCC3C4(CC4)C34CC4)C[C@H](C1)O2` [Compound 18], where the note is “Enteroid Assay A”, the “Ent. A Max Activity (%)” value is reported as “+ (+ is <30%)” and the EC50 fell in the range of 1000 to 3000 nM.
For `Cc1cccc(C)c1-c1cc2nc(n1)NS(=O)(=O)c1cccc(c1)C(=O)N1CCN(CC(C)(C)C)C[C@H](C1)O2` [Compound 19] the same measures were “+++ (+++ is >600%)” and < 1000 nM.
For `Cc1cccc(C)c1-c1cc2nc(n1)NS(=O)(=O)c1cccc(c1)C(=O)N1CCN(C3C(C)(C)CC3(C)C)C[C@H](C1)O2` [Compound 20] the same measures were “+++ (+++ is >600%)” and < 1000 nM.
Turning to `Cc1cccc(C)c1-c1cc2nc(n1)NS(=O)(=O)c1cccc(c1)C(=O)N1CCN(C3CC(F)(F)C3)C[C@H](C1)O2` [Compound 21], where the note is “Enteroid Assay A”, the “Ent. A Max Activity (%)” value is given as “+++ (+++ is >600%)” and the EC50 was < 1000 nM.
Regarding `Cc1cccc(C)c1-c1cc2nc(n1)NS(=O)(=O)c1cccc(c1)C(=O)N1CCN(C3CCCCC3)C[C@H](C1)O2` [Compound 22], where the note is “Enteroid Assay A”, the “Ent. A Max Activity (%)” value is “+++ (+++ is >600%)” and the EC50 was < 1000 nM.
For `Cc1cccc(C)c1-c1cc2nc(n1)NS(=O)(=O)c1cccc(c1)C(=O)N1CCN(C3CC4(CC4)C3)C[C@H](C1)O2` [Compound 23] the same measures were “+++ (+++ is >600%)” and < 1000 nM.
`Cc1cccc(C)c1-c1cc2nc(n1)NS(=O)(=O)c1cccc(c1)C(=O)N1CCN(C3CC(C)(C)C3)C[C@H](C1)O2` [Compound 24]: under “Enteroid Assay A”, the “Ent. A Max Activity (%)” value was “++ (++ is 30-60%)” and the EC50 was < 1000 nM.
For `Cc1cccc(C)c1-c1cc2nc(n1)NS(=O)(=O)c1cccc(c1)C(=O)N1CCN(C3CC4(COC4)C3)C[C@H](C1)O2` [Compound 25] the same measures were “++ (++ is 30-60%)” and 3000 to 30000 nM.
As for `Cc1cccc(C)c1-c1cc2nc(n1)NS(=O)(=O)c1cccc(c1)C(=O)N1CCN(C3CC4(CCC4)C3)C[C@H](C1)O2` [Compound 26], where the note is “Enteroid Assay A”, the “Ent. A Max Activity (%)” value is listed as “+++ (+++ is >600%)” and the EC50 was < 1000 nM.
`Cc1cccc(C)c1-c1cc2nc(n1)NS(=O)(=O)c1cccc(c1)C(=O)N1CCN(C3CCC3)C[C@H](C1)O2` [Compound 27]: where the note is “Enteroid Assay A”, the “Ent. A Max Activity (%)” value is “++ (++ is 30-60%)” and the EC50 is < 1000 nM.
On to `Cc1cccc(C)c1-c1cc2nc(n1)NS(=O)(=O)c1cccc(c1)C(=O)N1CCN(C3CCOCC3)C[C@H](C1)O2` [Compound 28], for which, under “Enteroid Assay A”, the “Ent. A Max Activity (%)” value was “+++ (+++ is >600%)” and the EC50 is 3000 to 30000 nM.
